These results are taken from ChEMBL document CHEMBL4680122, “Design, synthesis and biological evaluation of new Axl kinase inhibitors containing 1,3,4-oxadiazole acetamide moiety as novel linker” (Eur J Med Chem, 2020).

The source made the active and inactive calls. The rule behind the calls is not given here.

Assay [1] deals with T1, Tyrosine-protein kinase receptor TYRO3 (Homo sapiens, UniProt Q06418).
T1 sequence (Q06418 whole entry): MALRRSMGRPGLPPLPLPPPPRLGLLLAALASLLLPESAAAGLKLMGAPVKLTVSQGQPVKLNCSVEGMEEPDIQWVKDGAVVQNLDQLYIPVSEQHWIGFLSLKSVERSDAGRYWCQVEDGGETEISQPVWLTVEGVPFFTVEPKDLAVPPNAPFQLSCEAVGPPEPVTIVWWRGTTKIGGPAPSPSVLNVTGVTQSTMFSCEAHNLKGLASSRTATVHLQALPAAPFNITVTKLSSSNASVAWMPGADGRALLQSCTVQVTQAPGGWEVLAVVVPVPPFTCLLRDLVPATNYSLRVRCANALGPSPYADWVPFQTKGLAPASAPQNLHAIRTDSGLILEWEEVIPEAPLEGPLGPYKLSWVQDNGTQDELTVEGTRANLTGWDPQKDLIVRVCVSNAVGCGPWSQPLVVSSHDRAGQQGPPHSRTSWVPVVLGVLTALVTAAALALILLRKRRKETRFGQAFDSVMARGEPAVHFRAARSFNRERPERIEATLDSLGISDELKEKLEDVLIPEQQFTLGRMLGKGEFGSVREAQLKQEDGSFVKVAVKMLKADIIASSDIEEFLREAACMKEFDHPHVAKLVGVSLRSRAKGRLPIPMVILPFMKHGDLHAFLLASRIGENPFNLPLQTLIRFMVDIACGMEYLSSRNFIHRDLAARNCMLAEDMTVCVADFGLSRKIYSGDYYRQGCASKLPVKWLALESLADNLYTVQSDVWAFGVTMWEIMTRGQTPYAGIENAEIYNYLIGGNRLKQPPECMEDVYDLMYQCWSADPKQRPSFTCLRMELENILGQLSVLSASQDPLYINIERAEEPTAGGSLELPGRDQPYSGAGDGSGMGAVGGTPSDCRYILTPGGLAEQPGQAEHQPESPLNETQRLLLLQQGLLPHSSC
Briefly: Inhibition of Tyro3 (unknown origin).

The target in assay [2] is Tyrosine-protein kinase receptor UFO (Homo sapiens) (UniProt P30530). Particulars: dose 100.0 nM, time 1.0 hrs.
Assay [3] relates to MDA-MB-231. Briefly: Antiproliferative activity against human MDA-MB-231 cells measured after 72 hrs by MTT assay. Type of assay: functional, cell-based.
Assay [4] concerns MCF7. Briefly: Antiproliferative activity against human MCF7 cells measured after 72 hrs by MTT assay. Type of assay: functional, cell-based. Particulars: MCF7, 72 h.
For assay [5], the system named is A549. Briefly: cells. The settings on record: Homo sapiens, A549, 72 h.
Description: Antiproliferative activity against human A549 cells measured after 72 hrs by MTT assay
The target in assay [6] is Macrophage-stimulating protein receptor (Homo sapiens) (UniProt Q04912). Briefly: Inhibition of Ron (unknown origin) at 200 nM relative to control.
Sequence of Macrophage-stimulating protein receptor (Homo sapiens) (Q04912 25-304 limits assumed): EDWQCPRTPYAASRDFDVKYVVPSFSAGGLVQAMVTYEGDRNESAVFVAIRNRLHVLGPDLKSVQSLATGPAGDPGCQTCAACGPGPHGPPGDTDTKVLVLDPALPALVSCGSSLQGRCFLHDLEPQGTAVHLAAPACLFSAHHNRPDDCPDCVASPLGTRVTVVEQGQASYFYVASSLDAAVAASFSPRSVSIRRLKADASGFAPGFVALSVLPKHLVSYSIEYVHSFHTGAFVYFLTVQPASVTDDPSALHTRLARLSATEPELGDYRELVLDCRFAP
Sequence of Macrophage-stimulating protein receptor (Homo sapiens) (Q04912 310-1400 limits assumed): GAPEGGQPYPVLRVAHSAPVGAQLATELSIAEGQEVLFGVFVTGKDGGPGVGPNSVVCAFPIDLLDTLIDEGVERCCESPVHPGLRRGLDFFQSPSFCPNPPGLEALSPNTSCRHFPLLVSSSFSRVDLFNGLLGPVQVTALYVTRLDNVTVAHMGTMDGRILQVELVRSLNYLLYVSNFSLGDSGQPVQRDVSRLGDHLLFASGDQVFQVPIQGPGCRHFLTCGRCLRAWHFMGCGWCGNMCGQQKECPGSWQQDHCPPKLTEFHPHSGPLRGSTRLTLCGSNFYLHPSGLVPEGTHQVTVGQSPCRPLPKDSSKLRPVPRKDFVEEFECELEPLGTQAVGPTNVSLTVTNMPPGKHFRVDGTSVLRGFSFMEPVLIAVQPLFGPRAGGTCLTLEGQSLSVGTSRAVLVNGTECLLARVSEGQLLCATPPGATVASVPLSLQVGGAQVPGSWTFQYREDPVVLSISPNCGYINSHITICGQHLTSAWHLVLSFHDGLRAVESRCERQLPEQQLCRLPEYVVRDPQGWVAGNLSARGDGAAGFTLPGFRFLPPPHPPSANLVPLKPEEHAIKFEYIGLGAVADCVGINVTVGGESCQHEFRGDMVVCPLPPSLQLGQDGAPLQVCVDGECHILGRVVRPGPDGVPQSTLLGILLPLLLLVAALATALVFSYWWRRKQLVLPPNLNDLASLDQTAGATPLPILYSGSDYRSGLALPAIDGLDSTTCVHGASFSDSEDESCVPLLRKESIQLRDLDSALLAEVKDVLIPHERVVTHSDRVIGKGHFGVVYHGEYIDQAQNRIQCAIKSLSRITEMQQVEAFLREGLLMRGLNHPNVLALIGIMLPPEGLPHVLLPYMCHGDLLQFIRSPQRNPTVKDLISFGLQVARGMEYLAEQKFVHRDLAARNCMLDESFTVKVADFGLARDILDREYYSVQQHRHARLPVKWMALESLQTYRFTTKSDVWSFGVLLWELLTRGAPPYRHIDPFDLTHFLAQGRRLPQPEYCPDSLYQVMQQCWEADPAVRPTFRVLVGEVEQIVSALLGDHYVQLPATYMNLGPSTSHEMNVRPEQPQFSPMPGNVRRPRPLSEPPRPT
Assay [7] has as its system PC-3. Briefly: cells. The settings on record: Homo sapiens, PC-3, 72 h.
Description: Antiproliferative activity against human PC-3 cells measured after 72 hrs by MTT assay
Assay [8] addresses T2, Tyrosine-protein kinase receptor UFO (Homo sapiens, UniProt P30530).
T2 sequence (P30530 whole entry): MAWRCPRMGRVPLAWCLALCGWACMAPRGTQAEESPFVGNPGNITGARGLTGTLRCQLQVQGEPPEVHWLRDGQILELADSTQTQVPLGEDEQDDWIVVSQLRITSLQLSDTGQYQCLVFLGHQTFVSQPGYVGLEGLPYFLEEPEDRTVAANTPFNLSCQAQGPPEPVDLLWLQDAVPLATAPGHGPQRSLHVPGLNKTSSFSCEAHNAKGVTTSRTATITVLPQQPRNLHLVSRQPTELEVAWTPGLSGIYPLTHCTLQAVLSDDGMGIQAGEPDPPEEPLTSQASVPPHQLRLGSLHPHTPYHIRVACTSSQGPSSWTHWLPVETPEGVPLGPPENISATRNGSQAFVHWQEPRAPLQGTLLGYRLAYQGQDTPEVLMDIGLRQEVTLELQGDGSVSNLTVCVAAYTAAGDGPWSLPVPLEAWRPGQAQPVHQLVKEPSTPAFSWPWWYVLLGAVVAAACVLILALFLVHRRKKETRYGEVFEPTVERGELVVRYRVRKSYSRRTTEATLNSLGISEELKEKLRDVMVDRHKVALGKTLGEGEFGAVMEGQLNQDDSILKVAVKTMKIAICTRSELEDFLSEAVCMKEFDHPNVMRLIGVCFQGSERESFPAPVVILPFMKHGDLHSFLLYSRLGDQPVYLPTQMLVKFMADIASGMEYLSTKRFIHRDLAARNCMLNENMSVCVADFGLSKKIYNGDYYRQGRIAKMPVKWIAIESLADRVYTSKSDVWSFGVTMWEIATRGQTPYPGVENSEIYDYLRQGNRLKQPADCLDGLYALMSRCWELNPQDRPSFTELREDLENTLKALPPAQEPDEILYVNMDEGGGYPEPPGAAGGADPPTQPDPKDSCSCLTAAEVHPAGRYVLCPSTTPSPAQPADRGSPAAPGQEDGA
Briefly: Inhibition of human N-terminal GST-fused Axl cytoplasmic domain (464 to 885 residues) expressed in baculovirus expression system using CSKtide as substrate measured after 1 hr by mobility shift assay.

Assay [9] concerns the target Hepatocyte growth factor receptor (Homo sapiens, UniProt P08581). Briefly: Inhibition of human N-terminal GST-fused c-MET cytoplasmic domain (956 to 1390 residues) expressed in baculovirus expression system using Srctide as substrate measured after 1 hr by mobility shift assay.
For assay [10], the system named is A549. Briefly: Potency index, ratio of foretinib IC50 to test compound IC50 for antiproliferative activity against human A549 cells. In kind it is functional.
Assay [11] concerns HT-29. Briefly: Antiproliferative activity against human HT-29 cells measured after 72 hrs by MTT assay. The settings on record: HT-29, 72 h.

Sequence of Hepatocyte growth factor receptor (P08581 whole entry, the tested form may be a part): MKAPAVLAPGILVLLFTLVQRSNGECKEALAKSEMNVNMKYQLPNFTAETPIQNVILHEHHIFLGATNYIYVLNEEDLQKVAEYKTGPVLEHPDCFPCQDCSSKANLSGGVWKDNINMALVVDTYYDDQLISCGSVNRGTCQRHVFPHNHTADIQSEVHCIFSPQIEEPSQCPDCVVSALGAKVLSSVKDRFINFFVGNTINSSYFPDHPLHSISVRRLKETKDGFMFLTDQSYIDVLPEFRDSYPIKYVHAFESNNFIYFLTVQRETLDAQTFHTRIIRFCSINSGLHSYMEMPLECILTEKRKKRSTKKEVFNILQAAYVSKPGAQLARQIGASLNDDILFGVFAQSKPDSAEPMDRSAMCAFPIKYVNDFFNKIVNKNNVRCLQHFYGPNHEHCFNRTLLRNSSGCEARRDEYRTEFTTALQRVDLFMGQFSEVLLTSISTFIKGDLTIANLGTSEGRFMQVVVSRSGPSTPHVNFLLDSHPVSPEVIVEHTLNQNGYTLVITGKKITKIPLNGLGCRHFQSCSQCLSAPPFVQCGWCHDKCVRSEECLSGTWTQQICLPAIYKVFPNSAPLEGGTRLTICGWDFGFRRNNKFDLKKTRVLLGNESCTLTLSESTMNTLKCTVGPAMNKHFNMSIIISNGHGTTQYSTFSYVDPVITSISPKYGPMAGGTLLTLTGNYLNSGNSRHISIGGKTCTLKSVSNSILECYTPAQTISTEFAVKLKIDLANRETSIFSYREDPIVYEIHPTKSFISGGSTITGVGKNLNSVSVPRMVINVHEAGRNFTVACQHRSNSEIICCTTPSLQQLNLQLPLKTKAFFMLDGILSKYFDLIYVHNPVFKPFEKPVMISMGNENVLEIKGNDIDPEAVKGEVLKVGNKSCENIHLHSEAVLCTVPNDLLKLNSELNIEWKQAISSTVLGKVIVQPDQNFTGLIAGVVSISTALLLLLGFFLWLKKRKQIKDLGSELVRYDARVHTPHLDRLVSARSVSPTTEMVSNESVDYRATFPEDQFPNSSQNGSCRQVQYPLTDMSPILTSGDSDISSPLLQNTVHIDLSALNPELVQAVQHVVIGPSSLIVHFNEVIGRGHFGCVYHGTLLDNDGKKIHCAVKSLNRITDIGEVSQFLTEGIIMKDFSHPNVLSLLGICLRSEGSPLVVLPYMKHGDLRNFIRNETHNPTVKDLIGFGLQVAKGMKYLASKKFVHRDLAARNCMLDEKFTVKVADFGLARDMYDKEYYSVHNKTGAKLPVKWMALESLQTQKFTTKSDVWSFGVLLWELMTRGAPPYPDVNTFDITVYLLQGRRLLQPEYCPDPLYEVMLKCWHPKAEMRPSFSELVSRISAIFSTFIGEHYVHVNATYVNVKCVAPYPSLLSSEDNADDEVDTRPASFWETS

Take `COc1cc2c(Oc3ccc(NC(=O)C4(c5nnc(-c6ccc(F)cc6)o5)CC4)cc3F)ccnc2cc1OCCCN1CCCCC1`: the 50% inhibitory concentration (IC50) is over 200 nM in assay [1]; 1010 nM in assay [4]; 53 nM in assay [5]; 590 nM in assay [7]; 10 nM in assay [8]; 71 nM in [9]. Besides, in assay [11], it took 1030 nM to reach half-maximal inhibition (IC50). The results for the inhibition in assay [2] and in assay [6] were 93.7% and over 80%, respectively. In addition, the outcome in [3] was Active. In assay [10], the “Ratio IC50” value is on record as 1.9.
